In US11083199B2, “Heterocycle derivatives as pesticides” (Bayer Aktiengesellschaft, priority 2017, dated 2021):

Legend:
Type in all cases: in vivo
Ctenocephalides felis [1] = assay: Ctenocephalides felis in vitro contact test with adult cat fleas; conditions: application rate 5 μg/cm^2 (=500 g/ha), adult cat fleas dead or moribund after 48 h, read-out: efficacy
Method: For the coating of the test tubes, 9 mg of active ingredient are first dissolved in 1 ml of acetone p.a. and then diluted to the desired concentration with acetone p.a. 250 μl of the solution are distributed homogeneously on the inner walls and the base of a 25 ml glass tube by turning and rocking on an orbital shaker (rocking rotation at 30 rpm for 2 h). With 900 ppm of active ingredient solution and internal surface area 44.7 cm^2, given homogeneous distribution, an area-based dose of 5 μg/cm^2 is achieved. After the solvent has evaporated off, the tubes are populated with 5-10 adult cat fleas (Ctenocephalides felis), sealed with a perforated plastic lid and incubated in a horizontal position at room temperature and ambient humidity. After 48 h, efficacy is determined. To this end, the tubes are stood upright and the fleas are knocked to the base of the tube. Fleas which remain motionless at the base or move in an uncoordinated manner are considered to be dead or moribund. […] 100% efficacy means that all the fleas were dead or moribund. 0% efficacy means that no fleas were harmed.

Ctenocephalides felis [2] = assay: Ctenocephalides felis oral test; conditions: 48 h, application rate 100 ppm in citrated cattle blood, kill after 2 days, read-out: efficacy
Method: Solvent: dimethyl sulfoxide To produce a suitable active ingredient formulation, 10 mg of active ingredient are mixed with 0.5 ml of dimethyl sulfoxide. Dilution with citrated cattle blood gives the desired concentration. About 20 unfed adult cat fleas (Ctenocephalides felis) are placed into a chamber which is closed at the top and bottom with gauze. A metal cylinder whose bottom end is closed with parafilm is placed onto the chamber. The cylinder contains the blood/active ingredient formulation, which can be imbibed by the fleas through the parafilm membrane. After 2 days, the kill in % is determined. 100% means that all of the fleas have been killed; 0% means that none of the fleas have been killed.

Myzus persicae [3] = assay: Myzus persicae oral test; conditions: 120 h, application rate 4 ppm, after 5 days, read-out: efficacy
Method: [table] To produce a suitable active ingredient formulation, 1 part by weight of active ingredient is dissolved with the stated parts by weight of solvent and made up to the desired concentration with water. 50 μl of the active ingredient formulation are transferred into microtitre plates and made up to a final volume of 200 μl with 150 μl of IPL41 insect medium (33%+15% sugar). Subsequently, the plates are sealed with parafilm, which a mixed population of green peach aphids (Myzus persicae) within a second microtitre plate is able to puncture and imbibe the solution. After 5 days, the efficacy in % is determined. 100% means that all the aphids have been killed; 0% means that no aphids have been killed.

Lucilia cuprina = Lucilia cuprina test; conditions: 48 h, application rate 100 ppm, L1 larvae, kill after 2 days, read-out: efficacy
Method: Solvent: dimethyl sulfoxide To produce a suitable active ingredient formulation, 10 mg of active ingredient are mixed with 0.5 ml of dimethyl sulfoxide, and the concentrate is diluted with water to the desired concentration. About 20 L1 larvae of the Australian sheep blowfly (Lucilia cuprina) are transferred into a test vessel containing minced horsemeat and the active ingredient formulation of the desired concentration. After 2 days, the kill in % is determined. 100% means that all the larvae have been killed; 0% means that no larvae have been killed.

Myzus persicae [4] = assay: Myzus persicae spray test; conditions: foliar, 120 h, application rate 100 g/ha, Chinese cabbage leaf discs, after 5 days, read-out: efficacy
Method: (§1) [table] To produce a suitable active ingredient formulation, 1 part by weight of active ingredient is dissolved with the specified parts by weight of solvent and made up to the desired concentration with water containing an emulsifier concentration of 1000 ppm. To produce further test concentrations, the formulation is diluted with emulsifier-containing water. Discs of Chinese cabbage leaves (Brassica pekinensis) infested by all stages of the green peach aphid (Myzus persicae) are sprayed with an active ingredient formulation of the desired concentration. After 5 days, the efficacy in % is determined. 100% means that all the aphids have been killed; 0% means that no aphids have been killed.

Phaedon cochleariae = Phaedon cochleariae spray test; conditions: 168 h, larvae, after 7 days, read-out: efficacy; for pest or weed control at 100 g/ha: application rate 100 g/ha
Method: as §1, with “pekinensis)” for “pekinensis) infested by all stages of the green peach aphid (Myzus persicae)”, “concentration and, after drying, populated with larvae of the mustard beetle (Phaedon cochleariae).” for “concentration.”, “7” for “5”, “beetle larvae” for “aphids”

Spodoptera frugiperda = Spodoptera frugiperda spray test; conditions: foliar, 168 h, application rate 100 g/ha, maize leaf discs, caterpillars, after 7 days, read-out: efficacy
Method: [table] To produce a suitable active ingredient formulation, 1 part by weight of active ingredient is dissolved with the specified parts by weight of solvent and made up to the desired concentration with water containing an emulsifier concentration of 1000 ppm. To produce further test concentrations, the formulation is diluted with emulsifier-containing water. Leaf discs of maize (Zea mays) are sprayed with an active ingredient formulation of the desired concentration and, after drying, populated with caterpillars of the fall armyworm (Spodoptera frugiperda). After 7 days, the efficacy in % is determined. 100% means that all the caterpillars have been killed; 0% means that no caterpillar has been killed.

Tetranychus urticae = Tetranychus urticae spray test, OP-resistant; conditions: foliar, 144 h, bean leaf discs, after 6 days, read-out: efficacy; for pest or weed control at 20 g/ha: application rate 20 g/ha; for pest or weed control at 100 g/ha: application rate 100 g/ha
Method: [table] To produce a suitable active ingredient formulation, 1 part by weight of active ingredient is dissolved with the specified parts by weight of solvent and made up to the desired concentration with water containing an emulsifier concentration of 1000 ppm. To produce further test concentrations, the formulation is diluted with emulsifier-containing water. Discs of bean leaves (Phaseolus vulgaris) infested with all stages of the greenhouse red spider mite (Tetranychus urticae) are sprayed with an active ingredient formulation of the desired concentration. After 6 days, the efficacy in % is determined. 100% means that all the spider mites have been killed; 0% means that no spider mites have been killed.

Structure (SMILES)	pest or weed control at 5 µg/cm2, 500 g/ha (Ctenocephalides felis [1])	pest or weed control at 100 ppm (Ctenocephalides felis [2])	pest or weed control at 4 ppm (Myzus persicae [3])	pest or weed control at 100 ppm (Lucilia cuprina)	pest or weed control at 100 g/ha (Myzus persicae [4])	pest or weed control at 100 g/ha (Phaedon cochleariae)	pest or weed control at 100 g/ha (Spodoptera frugiperda)	pest or weed control at 20 g/ha (Tetranychus urticae)	pest or weed control at 100 g/ha (Tetranychus urticae)	pest or weed control at 500 g/ha (Phaedon cochleariae; application rate 500 g/ha)
CCS(=O)(=O)c1c(-c2nc3cc(C(F)(F)F)ncc3n2C)nc(-c2ccccc2)n1C [Example I-003]	100%	100%	100%	100%	90%	–	–	–	–	–
CCS(=O)(=O)c1c(-c2nc3cc(C(F)(F)F)ncc3n2C)nc(-c2ccccn2)n1C [Example I-013]	100%	100%	100%	100%	90%	100%	–	–	–	–
CCS(=O)(=O)c1c(-c2nc3cc(C(F)(F)F)ncc3n2C)nc(Cl)n1C(C)C [Example I-025]	–	80%	100%	–	–	–	100%	–	–	–
CCS(=O)(=O)c1c(-c2nc3cc(C(F)(F)F)ncc3n2C)ncn1C [Example I-029, 2-[5-(Ethylsulfonyl)-1-methyl-1H-imidazol-4-yl]-3-methyl-6-(trifluoromethyl)-3H-imidazo[4,5-c]pyridine]	–	95%	100%	95%	70%	100%	–	–	–	–
CCS(=O)(=O)c1c(-c2nc3cc(C(F)(F)F)ncc3n2C)nc(C(N)=O)n1C [Example I-038, 5-(Ethylsulfonyl)-1-methyl-4-[3-methyl-6-(trifluoromethyl)-3H-imidazo[4,5-c]pyridin-2-yl]-1H-imidazole-2-carboxamide]	–	100%	100%	–	90%	100%	–	–	–	–
CCS(=O)(=O)c1c(-c2nc3cc(C(F)(F)F)ncc3n2C)nc(C(=O)NC)n1C [Example I-039]	–	100%	100%	–	100%	–	–	–	–	–
CCS(=O)(=O)c1c(-c2nc3cc(C(F)(F)F)ncc3n2C)nc(C(=O)N(C)C)n1C [Example I-040]	–	90%	100%	100%	100%	–	–	–	–	–
CCS(=O)(=O)c1c(-c2nc3cc(C(F)(F)F)ncc3n2C)nc(-c2cnn(C)c2)n1C [Example I-042]	–	–	100%	–	90%	100%	–	90%	–	–
CCS(=O)(=O)c1c(-c2nc3cc(C(F)(F)F)ncc3n2C)nc(-c2c(C)nn(C)c2C)n1C [Example I-050]	–	–	90%	–	90%	–	–	–	90%	–
CCS(=O)(=O)c1c(-c2nc3cc(C(F)(F)F)ncc3n2C)nc(-c2ccc(C#N)n2C)n1C [Example I-054]	–	–	90%	–	–	–	–	–	100%	–
CCS(=O)(=O)c1c(-c2nc3cc(C(F)(F)F)ncc3n2C)nc(-c2cnn(C3CC3)c2)n1C [Example I-055]	–	100%	100%	100%	90%	100%	–	–	90%	–
CCS(=O)(=O)c1c(-c2nc3cc(C(F)(F)F)ncc3n2C)nc(-c2ccc(C(C)(C)C#N)cc2)n1C [Example I-066]	–	–	100%	–	70%	–	–	–	90%	83%
CCS(=O)(=O)c1c(-c2nc3cc(C(F)(F)F)ncc3n2C)nc(-c2ccc(C3(C#N)CC3)c(F)c2)n1C [Example I-070]	–	–	100%	–	100%	100%	83%	–	100%	–
CCS(=O)(=O)c1c(-c2nc3cc(C(F)(F)F)ncc3n2C)nc(C2=CCC(C)CC2)n1C (stereo not shown) [Example I-074]	–	–	–	–	90%	–	–	–	90%	–
CCS(=O)(=O)c1c(-c2nc3cc(C(F)(F)F)ncc3n2C)nc(-c2cccc(C(C)(C)C#N)c2)n1C [Example I-075]	–	–	100%	–	90%	–	–	–	90%	–
CCS(=O)(=O)c1c(-c2nc3cc(C(F)(F)F)ncc3n2C)nc(-c2ccc(C3(C#N)CC3)cc2C)n1C [Example I-076]	–	–	–	–	100%	100%	100%	–	90%	–
CCS(=O)(=O)c1c(-c2nc3cc(C(F)(F)F)ncc3n2C)nc(-c2cc(Cl)cc(C3(C#N)CC3)c2)n1C [Example I-077]	–	–	–	–	90%	100%	–	90%	100%	–
CCS(=O)(=O)c1c(-c2nc3cc(C(F)(F)F)ncc3n2C)nc(-c2ccc(C#N)c(Cl)c2)n1C [Example I-082]	–	–	100%	–	90%	100%	83%	100%	100%	–
CCS(=O)(=O)c1c(-c2nc3cc(C(F)(F)F)ncc3n2C)nc(C(C)C)n1C [Example I-086]	–	–	100%	–	90%	–	–	–	90%	–
CCS(=O)(=O)c1c(-c2nc3cc(C(F)(F)F)ncc3n2C)nc(-c2cccc(C3(C#N)CC3)c2)n1C [Example I-087]	–	–	100%	–	–	100%	100%	90%	–	–
CCS(=O)(=O)c1c(-n2cc3ccc(C(F)(F)F)cc3n2)nc(-c2ccc(Cl)cc2)n1C [Example I-092]	–	–	100%	100%	–	67%	100%	–	100%	–
